Results published in patent US11884638B2, “Compound or salt thereof, composition for cysteine detection, fluorescent probe and composition for diagnosing cancer containing the same, method for detecting cysteine, method for providing information for diagnosing cancer, and method for producing compound” (Industry-Academic Cooperation Group of Kyung Hee University, priority 2021, dated 2024).

Tests used:
[1] = Binding selectivity of Compound 1 to cysteine in urine by fluorescence change; settings: 37° C. 40 minutes, excitation 488 nm; for selectivity of fluorescence change among biomolecules detectable in urine: each biomolecule 100 μM (cysteine, glutathione, aspartic acid, glutamine, lysine, arginine, adenosine triphosphate, sucrose, ammonium), FIG. 2(b)
Experimental: Specifically, in order to determine whether Compound 1 selectively binds to cysteine in urine, cysteine and N-ethylmaleimide (NEM) (500 μM) capable of lowering cysteine concentration in urine were used. In addition, glutathione, aspartic acid, glutamine, lysine, arginine, adenosine triphosphate, sucrose, and ammonium used in the experiment were products obtained from TCI (Tokyo Chemical Industry Co., Ltd), Sigma Aldrich, and Alfa Company. The concentration of each biomolecule was equally measured at 100 μM. In addition, in order to obtain fluorescence spectra and values, Compound 1 and an unknown sample were stirred at 37° C. for 40 minutes and then excited at a wavelength of 488 nm.
The types of biomolecules indicated on the x-axis of FIG. 2(b) are as follows, and the following Probe 1 corresponds to Compound 1: • (A) Probe 1; • (B) Probe 1 with L-cysteine; • (C) Probe 1 with L-glutathione; • (D) Probe 1 with L-aspartic acid; • (E) Probe 1 with L-glutamine; • (F) Probe 1 with L-lysine; • (G) Probe 1 with L-arginine; • (H) Probe 1 with adenosine triphosphate; • (I) Probe 1 with sucrose; • (J) Probe 1 with ammonium.

[2] = Fluorescence spectral analysis of Compound 1 in urine derived from cervical cancer patients; set-up: species or system human; settings: Compound 1 100 μM, urines N=100 versus normal N=308, 37° C. 40 minutes
Experimental: Specifically, fluorescence spectral analysis was performed immediately after treatment of the urines with Compound 1 (black line). After stirring at 37° C. for 40 minutes, fluorescence spectral analysis was performed (red line). […]

[3] = Fluorescence emission of Compound 1 with cysteine added to non-pretreated urine; set-up: species or system human
Experimental: In order to confirm the reaction of Compound 1 with cysteine in urine, non-pretreated urine (198 μL) was treated with varying concentrations (1 to 120 ng/μL) of cysteine, and then treated with Compound 1 (100 μM). The resulting urines were stirred in a stirrer at 37° C. for 40 minutes, and the fluorescence spectra were measured (excitation wavelength: 488 nm). In addition, Compound 1 was used after dissolution in a DMSO solution at 10 mM, and the amount of DMSO in the final solvent condition was controlled to be the same for each container (less than 1%).
Specifically, a spectro-fluorophotometer (SHIMADZU Corp. RF-6000, Japan) was used to analyze the emission spectrum, and the glass cuvette used for fluorescence measurement was a standard quartz cell (internal volume=[…], Hellma Analytics, Jena, Germany) having a thickness of 1 cm on all sides. In addition, a chamber (WUV-L10, DAIHAN Scientific) capable of excitation at a wavelength of 365 nm was used to visually observe the fluorescence change.
When the urine was treated with compound 1 (100 μM) and cysteine (60 ng/μL or higher), fluorescence changes were visible without a separate fluorescence measurement device. Although fluorescence changes were not visible when the urine was treated with Compound 1 (100 μM) and cysteine (concentration of 10 ng/μL or lower), examination was made as to whether fluorescence changes in this treatment could be confirmed using a fluorescence measurement device (FIG. 1(b)). Referring to FIG. 1(b), significant fluorescence changes could be obtained in the presence of 1 ng/μL of cysteine in urine, and statistical data thereon are shown below.

[4] = Fluorescence spectral analysis of Compound 1 in urines from patients with other diseases including cancer; set-up: species or system human; settings: Compound 1 100 μM, 37° C. 40 minutes
Text: The urines used in the experiment were collected from urolithiasis patients (B, N=162), kidney cancer patients (C, N=162), prostate cancer patients (D, N=162), bladder cancer patients (E, N=162), cervical cancer patients (F, N=100), diabetic patients (G, N=100), pituitary cancer patients (H, N=100), adrenal cancer patients (I, N=100), lung cancer patients (J, N=100), ovarian cancer patients (K, N=100), pancreatic and biliary tract cancer patients (L, N=100), and pancreatic cancer patients (M, N=100). In the measurement method, each of the collected urine (198 μL) and Compound 1 (100 μM) were mixed together, the fluorescence spectra thereof were measured, and the highest fluorescence intensity value was taken. Then, each mixture was stirred at 37° C. for 40 minutes, and the highest fluorescence intensity value obtained from the fluorescence spectra was taken. The difference between the fluorescence intensity values before and after the reaction was shown as a bar graph.

fluorescence value in urine containing cysteine ([1]; FIG. 2(a)): high fluorescence value | fluorescence value on co-treatment with N-ethylmaleimide which reduces cysteine ([1]; N-ethylmaleimide 500 μM, urine, FIG. 2(a)): fluorescence value decreased | wavelength of fluorescence turn-on upon binding to cysteine ([3]; when bound to cysteine): ~550 nm
SMILES: O=[N+]([O-])c1ccc(Oc2c(F)c(F)c(F)c(F)c2F)c2nonc12 [Compound 1, 4-nitro-7-(Perfluorophenoxy)benzo[c][1,2,5]oxadiazole]
selectivity of fluorescence change among biomolecules detectable in urine [1]: significant fluorescence change could be observed only for cysteine | selectivity of fluorescence change among biomolecules detectable in urine ([1]; listed as 4-nitro-7-(perfluorophenoxy)benzo[c][1,2,5]oxadiazole): selectively detect cysteine in urine without interference of other biomolecules | fluorescence values after reaction in urines derived from cervical cancer patients [2]: high fluorescence values | cysteine concentration at which fluorescence changes were visible without a separate fluorescence measurement device ([3]; normal urine, Compound 1 100 μM, 37° C. 40 minutes, excitation at 365 nm): ≥ 60 ng/µL | cysteine concentration at which fluorescence changes were not visible ([3]; normal urine, Compound 1 100 μM, 37° C. 40 minutes, excitation at 365 nm, by eye): ≤ 10 ng/µL | cysteine concentration in urine giving significant fluorescence changes using a fluorescence measurement device ([3]; urine, Compound 1 100 μM, 37° C. 40 minutes, excitation 488 nm): 1 ng/µL | patient group with the largest fluorescence emission effect ([4]; cervical cancer patients (F) compared with the other patient groups): greatest in the case of cervical cancer patients | fluorescence emission (difference of highest fluorescence intensity before and after reaction) in patient urines ([4]; urines of urolithiasis (B), cervical cancer (F), adrenal cancer (I), ovarian cancer (K), pancreatic and biliary tract cancer (L) patients): noticeable fluorescence emission was observed
